Key:
Assay in all cases: relative viability (nuclei count vs DMSO), 5 days (fraction); higher = more cells survive
Metformin + Phenformin = compound: CN(C)C(=N)NC(=N)N [Metformin] + N=C(N)NC(=N)NCCc1ccccc1 [Phenformin] (partner 250 µM)
Outline: (§1)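 The day after seeding in 1536-well plates, lung cancer cell lines were treated by pin tool with a single drug, or with a fixed anchor-drug dose together with five library-drug doses (not always all listed) in √10 steps. After 5 days, a combined fix-and-stain solution (final 0.05% Triton X-100, 1% formaldehyde, 1 ug/ml Hoechst) was added. Nuclei counted on 4× images gave relative viability as treated counts over vehicle counts, reported as the median of duplicate plates.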

Apatinib + Navitoclax = compound: N#CC1(c2ccc(NC(=O)c3cccnc3NCc3ccncc3)cc2)CCCC1 [Apatinib] + CC1(C)CCC(c2ccc(Cl)cc2)=C(CN2CCN(c3ccc(C(=O)NS(=O)(=O)c4ccc(N[C@H](CCN5CCOCC5)CSc5ccccc5)c(S(=O)(=O)C(F)(F)F)c4)cc3)CC2)C1 [Navitoclax] (partner 0.5 µM)
Outline: as §1

Metformin + Trametinib = compound: CN(C)C(=N)NC(=N)N [Metformin] + CC(=O)Nc1cccc(-n2c(=O)n(C3CC3)c(=O)c3c(Nc4ccc(I)cc4F)n(C)c(=O)c(C)c32)c1 [Trametinib] (partner 0.02 µM)
Outline: as §1

Metformin + Decitabine = compound: CN(C)C(=N)NC(=N)N [Metformin] + Nc1ncn([C@H]2C[C@H](O)[C@@H](CO)O2)c(=O)n1 [Decitabine] (partner 2 µM)
Outline: as §1

For NCI-H1563, the relative viability (Metformin + Phenformin; first compound 10 µM) was 0.704, the relative viability (Metformin + Phenformin; first compound 31.62 µM) was 0.702 and the relative viability (Metformin + Phenformin; first compound 100 µM) was 0.647. The relative viability (Metformin + Phenformin; first compound 316.23 µM) was 0.663 and the relative viability (Metformin + Phenformin; first compound 1000 µM) was 0.56.
With EBC-1 the relative viability (Apatinib + Navitoclax; first compound 0.08 µM) was 0.5, the relative viability (Apatinib + Navitoclax; first compound 0.253 µM) was 0.55 and the relative viability (Apatinib + Navitoclax; first compound 0.8 µM) was 0.46. For the same cell line, the relative viability (Apatinib + Navitoclax; first compound 2.53 µM) was 0.27 and the relative viability (Apatinib + Navitoclax; first compound 8 µM) was 0.237.
Cell Line NCI-H2228 has a relative viability (Apatinib + Navitoclax; first compound 0.08 µM) of 1.02, a relative viability (Apatinib + Navitoclax; first compound 0.253 µM) of 0.988 and a relative viability (Apatinib + Navitoclax; first compound 0.8 µM) of 0.738. For the same cell line, the relative viability (Apatinib + Navitoclax; first compound 2.53 µM) was 0.708, the relative viability (Apatinib + Navitoclax; first compound 8 µM) was 0.751 and the relative viability (Metformin + Phenformin; first compound 10 µM) was 0.27. For the same cell line, the relative viability (Metformin + Phenformin; first compound 31.62 µM) was 0.213, the relative viability (Metformin + Phenformin; first compound 100 µM) was 0.372 and the relative viability (Metformin + Phenformin; first compound 316.23 µM) was 0.275. It also gave a relative viability (Metformin + Phenformin; first compound 1000 µM) of 0.322, a relative viability (Metformin + Trametinib; first compound 10 µM) of 0.699 and a relative viability (Metformin + Trametinib; first compound 31.62 µM) of 0.681. For the same cell line, the relative viability (Metformin + Trametinib; first compound 100 µM) was 0.398, the relative viability (Metformin + Trametinib; first compound 316.23 µM) was 0.434 and the relative viability (Metformin + Trametinib; first compound 1000 µM) was 0.553.
With NCI-H661 the relative viability (Metformin + Phenformin; first compound 10 µM) was 0.284, the relative viability (Metformin + Phenformin; first compound 31.62 µM) was 0.262 and the relative viability (Metformin + Phenformin; first compound 100 µM) was 0.264. The relative viability (Metformin + Phenformin; first compound 316.23 µM) was 0.267, the relative viability (Metformin + Phenformin; first compound 1000 µM) was 0.267 and the relative viability (Metformin + Trametinib; first compound 10 µM) was 0.54. For the same cell line, the relative viability (Metformin + Trametinib; first compound 31.62 µM) was 0.643, the relative viability (Metformin + Trametinib; first compound 100 µM) was 0.575 and the relative viability (Metformin + Trametinib; first compound 316.23 µM) was 0.527. For the same cell line, the relative viability (Metformin + Trametinib; first compound 1000 µM) was 0.586, the relative viability (Metformin + Decitabine; first compound 10 µM) was 0.562 and the relative viability (Metformin + Decitabine; first compound 31.62 µM) was 0.61. The relative viability (Metformin + Decitabine; first compound 100 µM) was 0.587, the relative viability (Metformin + Decitabine; first compound 316.23 µM) was 0.579 and the relative viability (Metformin + Decitabine; first compound 1000 µM) was 0.602.
Cell Line NCI-H1648 has a relative viability (Metformin + Trametinib; first compound 31.62 µM) of 0.553, a relative viability (Metformin + Trametinib; first compound 100 µM) of 0.68 and a relative viability (Metformin + Trametinib; first compound 316.23 µM) of 0.53. The relative viability (Metformin + Trametinib; first compound 1000 µM) was 0.73, the relative viability (Metformin + Decitabine; first compound 31.62 µM) was 0.512 and the relative viability (Metformin + Decitabine; first compound 100 µM) was 0.555. The relative viability (Metformin + Decitabine; first compound 316.23 µM) was 0.535 and the relative viability (Metformin + Decitabine; first compound 1000 µM) was 0.656.
Work on A549 yielded a relative viability (Apatinib + Navitoclax; first compound 0.08 µM) of 1.18, a relative viability (Apatinib + Navitoclax; first compound 0.253 µM) of 1.34 and a relative viability (Apatinib + Navitoclax; first compound 0.8 µM) of 1.22. It also gave a relative viability (Apatinib + Navitoclax; first compound 2.53 µM) of 1.19, a relative viability (Apatinib + Navitoclax; first compound 8 µM) of 1.02 and a relative viability (Metformin + Phenformin; first compound 10 µM) of 0.0727. The relative viability (Metformin + Phenformin; first compound 31.62 µM) was 0.111, the relative viability (Metformin + Phenformin; first compound 100 µM) was 0.127 and the relative viability (Metformin + Phenformin; first compound 316.23 µM) was 0.124. For the same cell line, the relative viability (Metformin + Phenformin; first compound 1000 µM) was 0.154, the relative viability (Metformin + Decitabine; first compound 10 µM) was 0.182 and the relative viability (Metformin + Decitabine; first compound 31.62 µM) was 0.291. For the same cell line, the relative viability (Metformin + Decitabine; first compound 100 µM) was 0.179, the relative viability (Metformin + Decitabine; first compound 316.23 µM) was 0.198 and the relative viability (Metformin + Decitabine; first compound 1000 µM) was 0.209.
NCI-H2342 gave a relative viability (Metformin + Phenformin; first compound 10 µM) of 0.59, a relative viability (Metformin + Phenformin; first compound 31.62 µM) of 0.47 and a relative viability (Metformin + Phenformin; first compound 100 µM) of 0.494. The relative viability (Metformin + Phenformin; first compound 316.23 µM) was 0.51, the relative viability (Metformin + Phenformin; first compound 1000 µM) was 0.572 and the relative viability (Metformin + Trametinib; first compound 31.62 µM) was 0.773. The relative viability (Metformin + Trametinib; first compound 100 µM) was 0.9, the relative viability (Metformin + Trametinib; first compound 316.23 µM) was 0.823 and the relative viability (Metformin + Trametinib; first compound 1000 µM) was 0.801. The relative viability (Metformin + Decitabine; first compound 31.62 µM) was 0.812, the relative viability (Metformin + Decitabine; first compound 100 µM) was 0.708 and the relative viability (Metformin + Decitabine; first compound 316.23 µM) was 0.714. It also gave a relative viability (Metformin + Decitabine; first compound 1000 µM) of 0.693.
For NCI-H1299, the relative viability (Apatinib + Navitoclax; first compound 0.08 µM) was 1.06, the relative viability (Apatinib + Navitoclax; first compound 0.253 µM) was 1.05 and the relative viability (Apatinib + Navitoclax; first compound 0.8 µM) was 1.03. It also gave a relative viability (Apatinib + Navitoclax; first compound 2.53 µM) of 1.05 and a relative viability (Apatinib + Navitoclax; first compound 8 µM) of 0.937.
With NCI-H650 the relative viability (Metformin + Phenformin; first compound 10 µM) was 0.446, the relative viability (Metformin + Phenformin; first compound 31.62 µM) was 0.509 and the relative viability (Metformin + Phenformin; first compound 100 µM) was 0.357. The relative viability (Metformin + Phenformin; first compound 316.23 µM) was 0.436, the relative viability (Metformin + Phenformin; first compound 1000 µM) was 0.494 and the relative viability (Metformin + Trametinib; first compound 10 µM) was 1.09. It also gave a relative viability (Metformin + Trametinib; first compound 31.62 µM) of 1, a relative viability (Metformin + Trametinib; first compound 100 µM) of 1.06 and a relative viability (Metformin + Trametinib; first compound 316.23 µM) of 0.817. It also gave a relative viability (Metformin + Trametinib; first compound 1000 µM) of 0.94, a relative viability (Metformin + Decitabine; first compound 10 µM) of 0.274 and a relative viability (Metformin + Decitabine; first compound 31.62 µM) of 0.313. The relative viability (Metformin + Decitabine; first compound 100 µM) was 0.314, the relative viability (Metformin + Decitabine; first compound 316.23 µM) was 0.301 and the relative viability (Metformin + Decitabine; first compound 1000 µM) was 0.312.
For LCLC-103H, the relative viability (Metformin + Phenformin; first compound 10 µM) was 0.337, the relative viability (Metformin + Phenformin; first compound 31.62 µM) was 0.374 and the relative viability (Metformin + Phenformin; first compound 100 µM) was 0.407. It also gave a relative viability (Metformin + Phenformin; first compound 316.23 µM) of 0.324, a relative viability (Metformin + Phenformin; first compound 1000 µM) of 0.398 and a relative viability (Metformin + Trametinib; first compound 10 µM) of 0.72. The relative viability (Metformin + Trametinib; first compound 31.62 µM) was 0.672, the relative viability (Metformin + Trametinib; first compound 100 µM) was 0.745 and the relative viability (Metformin + Trametinib; first compound 316.23 µM) was 0.696. For the same cell line, the relative viability (Metformin + Trametinib; first compound 1000 µM) was 0.684, the relative viability (Metformin + Decitabine; first compound 10 µM) was 0.72 and the relative viability (Metformin + Decitabine; first compound 31.62 µM) was 0.738. The relative viability (Metformin + Decitabine; first compound 100 µM) was 0.714, the relative viability (Metformin + Decitabine; first compound 316.23 µM) was 0.714 and the relative viability (Metformin + Decitabine; first compound 1000 µM) was 0.788.
For NCI-H522, the relative viability (Metformin + Phenformin; first compound 10 µM) was 0.716, the relative viability (Metformin + Phenformin; first compound 31.62 µM) was 0.649 and the relative viability (Metformin + Phenformin; first compound 100 µM) was 0.713. It also gave a relative viability (Metformin + Phenformin; first compound 316.23 µM) of 0.584, a relative viability (Metformin + Phenformin; first compound 1000 µM) of 0.712 and a relative viability (Metformin + Trametinib; first compound 10 µM) of 1.07. It also gave a relative viability (Metformin + Trametinib; first compound 31.62 µM) of 0.749, a relative viability (Metformin + Trametinib; first compound 100 µM) of 0.725 and a relative viability (Metformin + Trametinib; first compound 316.23 µM) of 0.899. The relative viability (Metformin + Trametinib; first compound 1000 µM) was 1.21, the relative viability (Metformin + Decitabine; first compound 10 µM) was 0.659 and the relative viability (Metformin + Decitabine; first compound 31.62 µM) was 0.599. The relative viability (Metformin + Decitabine; first compound 100 µM) was 0.679, the relative viability (Metformin + Decitabine; first compound 316.23 µM) was 0.648 and the relative viability (Metformin + Decitabine; first compound 1000 µM) was 0.7.

Source: the supplement of paper PMC10307832
